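All cell lines were grown in 96-well plates and treated with compound for 48 hours. The concentration for full growth arrest is given as TGI.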
Assays:
Assay in all cases: NCI tumour cell line growth inhibition, 48 h
[1] = tested on: SR leukemia
[2] = tested on: RPMI-8226 leukemia
[3] = tested on: UO-31 renal
[4] = tested on: SF-268 CNS
[5] = tested on: LXFL 529 NSCLC
[6] = tested on: SK-MEL-28 melanoma
[7] = tested on: NCI-H226 lung
[8] = tested on: HL-60(TB) leukemia
[9] = tested on: DMS 273 small cell lung
[10] = tested on: SF-295 CNS
[11] = tested on: DLD-1 colon
[12] = tested on: XF 498 CNS
[13] = tested on: SNB-78 CNS
[14] = tested on: HT29 colon
[15] = tested on: SNB-19 CNS
[16] = tested on: COLO 205 colon
[17] = tested on: HOP-18 NSCLC
[18] = tested on: ACHN renal
[19] = tested on: NCI-H460 lung
[20] = tested on: EKVX NSCLC
[21] = tested on: IGROV1 ovarian
[22] = tested on: KM12 colon
[23] = tested on: CCRF-CEM leukemia
[24] = tested on: SNB-75 CNS
[25] = tested on: UACC-257 melanoma
[26] = tested on: SN12C renal
[27] = tested on: OVCAR-4 ovarian
[28] = tested on: RXF-631 renal
[29] = tested on: SK-MEL-5 melanoma
[30] = tested on: DMS 114 small cell lung
[31] = tested on: MOLT-4 leukemia
[32] = tested on: M14 melanoma
[33] = tested on: HCT-116 colon
[34] = tested on: SK-MEL-2 melanoma
[35] = tested on: OVCAR-5 ovarian
[36] = tested on: A549 NSCLC
[37] = tested on: RXF 393 renal
[38] = tested on: TK-10 renal
[39] = tested on: SW-620 colon
[40] = tested on: SF-539 CNS
[41] = tested on: CAKI-1 renal
[42] = tested on: HCT-15 colon
[43] = tested on: K-562 leukemia
[44] = tested on: A498 renal
[45] = tested on: U251 CNS
[46] = tested on: HCC-2998 colon
[47] = tested on: LOX IMVI melanoma
[48] = tested on: NCI-H23 lung
[49] = tested on: OVCAR-8 ovarian
[50] = tested on: MALME-3M melanoma
[51] = tested on: KM20L2 colon
[52] = tested on: HOP-92 NSCLC
[53] = tested on: HOP-62 NSCLC
[54] = tested on: OVCAR-3 ovarian
[55] = tested on: SK-OV-3 ovarian
[56] = tested on: UACC-62 melanoma
[57] = tested on: M19-MEL melanoma
[58] = tested on: 786-0 renal

## CCOC(=O)/C=C(\C)c1ccc(C)cc1C
[1]
  TGI: 37.3 µM
[2]
  TGI: 68.2 µM
[3]
  TGI: > 100 µM
[4]
  TGI: > 100 µM
[5]
  TGI: 28.6 µM
[6]
  TGI: 51.8 µM
[7]
  TGI: > 100 µM
[8]
  TGI: 11.9 µM
[9]
  TGI: > 100 µM
[10]
  TGI: > 100 µM
[11]
  TGI: 31.5 µM
[12]
  TGI: 43.2 µM
[13]
  TGI: > 100 µM
[14]
  TGI: > 100 µM
[15]
  TGI: > 100 µM
[16]
  TGI: > 100 µM
[17]
  TGI: > 100 µM
[18]
  TGI: > 100 µM
[19]
  TGI: > 100 µM
[20]
  TGI: > 100 µM
[21]
  TGI: > 100 µM
[22]
  TGI: > 100 µM
[23]
  TGI: > 100 µM
[24]
  TGI: > 100 µM
[25]
  TGI: > 100 µM
[26]
  TGI: > 100 µM
[27]
  TGI: > 100 µM
[28]
  TGI: > 100 µM
[29]
  TGI: > 100 µM
[30]
  TGI: > 100 µM
[31]
  TGI: > 100 µM
[32]
  TGI: > 100 µM
[33]
  TGI: > 100 µM
[34]
  TGI: > 100 µM
[35]
  TGI: > 100 µM
[36]
  TGI: > 100 µM
[37]
  TGI: 27.7 µM
[38]
  TGI: > 100 µM
[39]
  TGI: 37.8 µM
[40]
  TGI: > 100 µM
[41]
  TGI: > 100 µM
[42]
  TGI: 88.6 µM
[43]
  TGI: > 100 µM
[44]
  TGI: > 100 µM
[45]
  TGI: > 100 µM
[46]
  TGI: > 100 µM
[47]
  TGI: 31.3 µM
[48]
  TGI: > 100 µM
[49]
  TGI: > 100 µM
[50]
  TGI: 53.9 µM
[51]
  TGI: > 100 µM
[52]
  TGI: 63.8 µM

## CC/C(=N\NS(=O)(=O)c1ccccc1)c1ccccc1
[1]
  TGI: > 100 µM
[53]
  TGI: > 100 µM
[2]
  TGI: > 100 µM
[54]
  TGI: > 100 µM
[3]
  TGI: > 100 µM
[4]
  TGI: > 100 µM
[5]
  TGI: > 100 µM
[6]
  TGI: > 100 µM
[7]
  TGI: > 100 µM
[8]
  TGI: > 100 µM
[9]
  TGI: > 100 µM
[55]
  TGI: > 100 µM
[10]
  TGI: > 100 µM
[56]
  TGI: > 100 µM
[11]
  TGI: > 100 µM
[12]
  TGI: > 100 µM
[13]
  TGI: > 100 µM
[14]
  TGI: > 100 µM
[16]
  TGI: > 100 µM
[17]
  TGI: > 100 µM
[18]
  TGI: > 100 µM
[19]
  TGI: > 100 µM
[20]
  TGI: > 100 µM
[21]
  TGI: > 100 µM
[22]
  TGI: > 100 µM
[57]
  TGI: > 100 µM
[23]
  TGI: > 100 µM
[24]
  TGI: > 100 µM
[25]
  TGI: > 100 µM
[26]
  TGI: > 100 µM
[27]
  TGI: > 100 µM
[28]
  TGI: > 100 µM
[29]
  TGI: > 100 µM
[31]
  TGI: > 100 µM
[32]
  TGI: > 100 µM
[33]
  TGI: > 100 µM
[34]
  TGI: > 100 µM
[35]
  TGI: > 100 µM
[36]
  TGI: > 100 µM
[37]
  TGI: > 100 µM
[38]
  TGI: > 100 µM
[39]
  TGI: > 100 µM
[40]
  TGI: > 100 µM
[41]
  TGI: > 100 µM
[42]
  TGI: > 100 µM
[43]
  TGI: > 100 µM
[44]
  TGI: > 100 µM
[45]
  TGI: > 100 µM
[46]
  TGI: > 100 µM
[58]
  TGI: > 100 µM
[47]
  TGI: > 100 µM
[48]
  TGI: > 100 µM
[49]
  TGI: > 100 µM
[50]
  TGI: > 100 µM
[51]
  TGI: > 100 µM
[52]
  TGI: > 100 µM

Reference: PubChem BioAssay (NCI)
